The values below come from PMC3412796, “High-Throughput Screening and Rapid Inhibitor Triage Using an Infectious Chimeric Hepatitis C Virus” (PLoS ONE, 2012).

As usually defined, the EC50 is the concentration needed to bring the measured effect to its halfway point.

Marks after values point to notes of the source that are not given here. Where only a bound is given, the exact number is not on record here.

The subject of experiment [1] is gt 1a/2a-Rluc virus. Nature of the experiment: HCVcc infectious virus release assay. The conditions noted are these: 2× EC90 of compound, 48 h pi.
Protocol: Cells were incubated at 37°C for 48 h and supernatants were collected. Supernatants were clarified by centrifugation, diluted 20 fold and used to infect naïve Huh-7.5 cells in 96 well plates. Renilla luciferase expression was measured in both producer cells and target cells 48 h post-infection as described above.
Experiment [2] concerns gt 1a/2a-Rluc virus. Kind of experiment: Multi-cycle virus growth assay, Renilla luciferase readout (HTS). The conditions noted are these: for inhibition of luciferase expression: MOI 0.05, EI 1 µM added 16 h post-entry, LY411575 0.5 µM.
Protocol: For compound library screening, infections were performed in 384-well plates by pre-mixing 400 ffu of gt 1a/2a-Rluc virus with 1×10^4 Huh-7.5 cells and dispensing 50 µl on top of 150 nl of compound in DMSO (final 0.3% DMSO) followed by incubation at 37°C. Renilla luciferase activity, reflecting the degree of virus replication, was measured 96 h after infection using the EnduRen reagent (Promega). […] Maximum activity (100% of control) and background were derived from control wells containing DMSO alone or from uninfected wells, respectively. The individual signals in each of the compound test wells were then divided by the averaged control values (wells lacking inhibitor), after background subtraction, and multiplied by 100% to determine percent activity. The corresponding % inhibition values were then calculated by subtracting this value from 100. Dose-response assays were performed in triplicate and average EC50 values (reflecting the concentration at which 50% inhibition of virus replication was achieved) were calculated using XLfit for Excel (ID Business Solutions, Burlington, MA). Cytotoxicity studies were performed in parallel using CellTiter-Glo (Promega). For high-content screening, virus and cells were prepared as above and 50 ul was dispensed into black 384 well optics plates (Thermo Scientific). At 96 h post-infection, cells were fixed for 20 min by adding 17 ul of 16% paraformaldehyde (Electron Microscopy Sciences) to achieve 4% final fixative. Cells were washed and permeabilized twice for 10 min each with PBS containing 1% TX-100 and 0.05% Tween-20 (wash buffer) and blocked for 15 min with PBS with 2% BSA (blocking buffer). […] The total number of cells per well (Hoechst staining) and infected cells per well (HCV Core) was measured using a Cellomics ArrayScan HCS Reader (Thermo Scientific) and EC50 values calculated as described above.
Experiment [3] concerns gt 1a/2a-Rluc virus. Nature of the experiment: HCVcc resistance selection. The conditions noted are these: virus cultured at 5× EC50 up to 10 weeks or until resistance observed.
Protocol: The gt 1a/2a-Rluc virus was used to infect Huh-7.5 cells and inhibitor was added 12 h post-infection at 5× EC50. Infection was allowed to progress for 96 h and cells were split 1∶1 with naïve Huh-7.5 cells in the presence of inhibitor and cultured for another 96 h. Viral supernatants were passed onto naïve Huh-7.5 cells in the presence of inhibitor and HCVcc replication in the presence of inhibitor was monitored by determining the spread of virus infection, using immunofluorescence (HCV Core), at each passage. Generally, virus stocks were prepared when HCVcc was ≥10-fold resistant relative to wild-type parental virus. The HCV genome was amplified by RT-PCR (Invitrogen), cloned and amino acid changes that arose during inhibitor selection were identified by analysis of the DNA sequence compared to the parent and control passages in the absence of inhibitor.
In experiment [4] the test system is gt 1a/2a-Rluc virus. Kind of experiment: Virus foci expansion by HCV Core immunofluorescence. It is filed as cell-based, Hepatitis C virus. The conditions noted are these: EI 1 µM added 16 h post-entry, LY411575 0.5 µM.
Experiment [5] relates to gt 1a/2a-Rluc virus. Nature of the experiment: HCV Core Cellomics ArrayScan assay (HCS). The conditions noted are these: 96 h, Huh-7.5 cells, HCV Core Cellomics readout, average ± SD of at least three experiments.
Protocol: For compound library screening, infections were performed in 384-well plates by pre-mixing 400 ffu of gt 1a/2a-Rluc virus with 1×10^4 Huh-7.5 cells and dispensing 50 µl on top of 150 nl of compound in DMSO (final 0.3% DMSO) followed by incubation at 37°C. Renilla luciferase activity, reflecting the degree of virus replication, was measured 96 h after infection using the EnduRen reagent (Promega). […] Maximum activity (100% of control) and background were derived from control wells containing DMSO alone or from uninfected wells, respectively. The individual signals in each of the compound test wells were then divided by the averaged control values (wells lacking inhibitor), after background subtraction, and multiplied by 100% to determine percent activity. The corresponding % inhibition values were then calculated by subtracting this value from 100. Dose-response assays were performed in triplicate and average EC50 values (reflecting the concentration at which 50% inhibition of virus replication was achieved) were calculated using XLfit for Excel (ID Business Solutions, Burlington, MA). Cytotoxicity studies were performed in parallel using CellTiter-Glo (Promega). […] The total number of cells per well (Hoechst staining) and infected cells per well (HCV Core) was measured using a Cellomics ArrayScan HCS Reader (Thermo Scientific) and EC50 values calculated as described above. […]

Turning to `C[C@H](NC(=O)[C@@H](O)c1cc(F)cc(F)c1)C(=O)N[C@@H]1C(=O)N(C)c2ccccc2-c2ccccc21` [LY411575], in experiment [1], the “effect on Renilla luciferase expression in producer and target cells” value is “only affected Renilla luciferase expression in target cells”. The “% inhibition in a 96 h assay” value in experiment [2] (384 well, 400 ffu of virus/well and 4,000 Huh7.5 cells (MOI = 0.1), 96 h) is reported as over 90%. Also, the entries for the “inhibition of luciferase expression” value in experiment [2] (48 h pi), in experiment [2] (72 h pi) and in experiment [2] (96 h pi) were under 20%, over 80% and over 90%, respectively. Also, the “difference in potency at 96 h vs 48 h pi (multi- vs single-cycle)” value in experiment [2] (EC50 at 48 h vs 96 h pi) is given as over 200 fold. In addition, the EC50 was 10 ± 3.3 nM in experiment [2] (read-out: Luciferase (EC50), 96 h, Huh-7.5 cells, Renilla luciferase readout, average ± SD of at least three experiments) and 11 ± 4.1 nM in experiment [5] (read-out: Cellomics (EC50)). The “Fold Resistance” value in experiment [3] was “did not select for resistance through ten weeks of culture and None”. For the same compound, in experiment [4] (48 h pi, MOI 0.05, Huh-7.5), the “size of HCV Core-positive virus foci” value stood at 2.0±0.6 mean cells/foci. The “inhibition of expansion of virus foci” value in experiment [4] (96 h pi, MOI 0.05) is recorded as over 20 fold.
As for IFNα, the “Luciferase (EC50)” value in experiment [2] (96 h, Huh-7.5 cells, Renilla luciferase readout, average ± SD of at least three experiments) is 0.20±0.04 ^b International units per ml. Further, the “Cellomics (EC50)” value in experiment [5] is reported as 0.17±0.08 ^b International units per ml.
